Laboratory results published in ChEMBL document CHEMBL1154164, “Design, synthesis, biological evaluation, and NMR studies of a new series of arylsulfones as selective and potent matrix metalloproteinase-12 inhibitors” (J Med Chem, 2009).

Key:
[1] = target: T1, Macrophage metalloelastase (Homo sapiens, UniProt P39900); assay: Inhibition of autoactivated human pro-MMP12 after 4 hrs by fluorimetry
[2] = target: 72 kDa type IV collagenase (Homo sapiens, UniProt P08253); assay: Inhibition of para-aminophenylmercuric acetate-activated human recombinant pro-MMP2 catalytic domain after 4 hrs by fluorimetry
[3] = target: T2, Interstitial collagenase (Homo sapiens, UniProt P03956); assay: Inhibition of para-aminophenylmercuric acetate-activated human pro-MMP1 after 4 hrs by fluorimetry
T2 sequence (P03956 whole entry): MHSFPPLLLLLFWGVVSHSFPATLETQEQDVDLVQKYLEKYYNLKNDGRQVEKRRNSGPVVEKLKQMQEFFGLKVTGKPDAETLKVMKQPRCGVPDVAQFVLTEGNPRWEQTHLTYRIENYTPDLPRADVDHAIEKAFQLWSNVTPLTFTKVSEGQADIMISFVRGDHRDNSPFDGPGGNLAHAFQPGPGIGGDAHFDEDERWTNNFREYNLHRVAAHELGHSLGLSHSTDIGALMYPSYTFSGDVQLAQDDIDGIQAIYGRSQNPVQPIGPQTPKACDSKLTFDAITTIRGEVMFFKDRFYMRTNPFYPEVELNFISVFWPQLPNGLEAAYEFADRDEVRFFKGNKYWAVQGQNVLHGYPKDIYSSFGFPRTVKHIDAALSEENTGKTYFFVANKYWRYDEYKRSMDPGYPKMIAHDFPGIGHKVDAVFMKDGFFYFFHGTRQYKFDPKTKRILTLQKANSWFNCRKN

[4] = target: Collagenase 3 (Homo sapiens, UniProt P45452); assay: Inhibition of para-aminophenylmercuric acetate-activated human pro-MMP13 after 4 hrs by fluorimetry
[5] = target: Matrix metalloproteinase-16 (Homo sapiens, UniProt P51512); assay: Inhibition of human recombinant pro-MMP16 catalytic domain after 4 hrs by fluorimetry
[6] = target: Matrix metalloproteinase-9 (Homo sapiens, UniProt P14780); assay: Inhibition of para-aminophenylmercuric acetate-activated human recombinant pro-MMP9 catalytic domain after 4 hrs by fluorimetry
[7] = target: Neutrophil collagenase (Homo sapiens, UniProt P22894); assay: Inhibition of para-aminophenylmercuric acetate-activated human pro-MMP8 after 4 hrs by fluorimetry
[8] = target: Stromelysin-1 (Homo sapiens, UniProt P08254); assay: Inhibition of trypsin activated human pro-MMP3 after 4 hrs by fluorimetry
[9] = target: Matrix metalloproteinase-14 (Homo sapiens, UniProt P50281); assay: Inhibition of human recombinant pro-MMP14 catalytic domain after 4 hrs by fluorimetry
[10] = target: T1, Macrophage metalloelastase; assay: Inhibition of autoactivated human pro-MMP12 after 30 mins preincubation by fluorimetry
[11] = target: T1, Macrophage metalloelastase; assay: Inhibition of autoactivated human pro-MMP12 after 1 hr preincubation by fluorimetry

Chain of Neutrophil collagenase (P22894 whole entry): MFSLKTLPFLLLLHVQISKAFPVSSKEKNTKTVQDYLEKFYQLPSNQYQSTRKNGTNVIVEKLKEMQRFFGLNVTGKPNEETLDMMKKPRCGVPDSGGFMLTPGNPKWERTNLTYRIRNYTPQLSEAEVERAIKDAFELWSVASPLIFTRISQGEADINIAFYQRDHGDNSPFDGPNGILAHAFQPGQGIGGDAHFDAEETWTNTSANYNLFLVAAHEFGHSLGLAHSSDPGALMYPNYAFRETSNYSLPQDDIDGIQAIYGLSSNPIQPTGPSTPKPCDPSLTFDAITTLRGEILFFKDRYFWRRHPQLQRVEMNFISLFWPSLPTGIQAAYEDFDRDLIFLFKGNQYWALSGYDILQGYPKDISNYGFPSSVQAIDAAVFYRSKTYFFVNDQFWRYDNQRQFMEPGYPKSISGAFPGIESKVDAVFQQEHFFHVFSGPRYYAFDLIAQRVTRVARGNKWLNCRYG
Chain of Matrix metalloproteinase-9 (P14780 whole entry, the tested form may be a part): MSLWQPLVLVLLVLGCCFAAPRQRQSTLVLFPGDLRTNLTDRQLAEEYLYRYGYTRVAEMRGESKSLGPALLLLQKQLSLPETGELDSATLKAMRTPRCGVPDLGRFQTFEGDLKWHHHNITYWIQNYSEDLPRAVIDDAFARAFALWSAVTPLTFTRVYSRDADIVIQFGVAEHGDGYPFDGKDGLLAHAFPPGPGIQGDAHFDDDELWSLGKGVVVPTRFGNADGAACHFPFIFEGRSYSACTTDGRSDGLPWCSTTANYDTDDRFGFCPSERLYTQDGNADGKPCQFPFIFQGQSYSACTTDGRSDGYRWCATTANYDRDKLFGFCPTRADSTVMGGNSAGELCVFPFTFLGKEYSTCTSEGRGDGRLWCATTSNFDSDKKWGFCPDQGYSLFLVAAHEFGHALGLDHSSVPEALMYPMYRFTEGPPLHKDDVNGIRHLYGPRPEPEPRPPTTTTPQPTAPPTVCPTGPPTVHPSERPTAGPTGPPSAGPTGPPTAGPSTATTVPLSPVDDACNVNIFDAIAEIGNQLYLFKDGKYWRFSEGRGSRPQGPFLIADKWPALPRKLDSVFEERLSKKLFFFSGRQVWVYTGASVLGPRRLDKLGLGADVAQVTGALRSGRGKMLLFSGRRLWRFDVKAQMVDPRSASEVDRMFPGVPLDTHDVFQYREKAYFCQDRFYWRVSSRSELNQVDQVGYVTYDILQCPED
Chain of Matrix metalloproteinase-16 (P51512 whole entry, the tested form may be a part): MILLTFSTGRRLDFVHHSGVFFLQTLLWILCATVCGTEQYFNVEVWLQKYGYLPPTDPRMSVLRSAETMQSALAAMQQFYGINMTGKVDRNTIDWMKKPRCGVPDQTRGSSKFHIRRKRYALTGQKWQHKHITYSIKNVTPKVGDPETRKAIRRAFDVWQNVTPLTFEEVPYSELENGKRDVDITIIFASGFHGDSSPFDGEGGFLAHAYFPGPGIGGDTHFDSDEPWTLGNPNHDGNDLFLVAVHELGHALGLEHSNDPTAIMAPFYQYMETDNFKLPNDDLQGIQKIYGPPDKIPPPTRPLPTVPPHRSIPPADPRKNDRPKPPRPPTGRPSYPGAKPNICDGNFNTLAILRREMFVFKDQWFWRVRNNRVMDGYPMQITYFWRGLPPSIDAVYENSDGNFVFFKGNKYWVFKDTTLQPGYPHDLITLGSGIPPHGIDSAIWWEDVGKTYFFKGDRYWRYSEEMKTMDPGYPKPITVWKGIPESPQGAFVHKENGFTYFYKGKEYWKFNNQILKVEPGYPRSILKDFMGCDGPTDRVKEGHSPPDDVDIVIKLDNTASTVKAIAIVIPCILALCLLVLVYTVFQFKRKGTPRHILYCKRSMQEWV
Chain of 72 kDa type IV collagenase (P08253 whole entry, the tested form may be a part): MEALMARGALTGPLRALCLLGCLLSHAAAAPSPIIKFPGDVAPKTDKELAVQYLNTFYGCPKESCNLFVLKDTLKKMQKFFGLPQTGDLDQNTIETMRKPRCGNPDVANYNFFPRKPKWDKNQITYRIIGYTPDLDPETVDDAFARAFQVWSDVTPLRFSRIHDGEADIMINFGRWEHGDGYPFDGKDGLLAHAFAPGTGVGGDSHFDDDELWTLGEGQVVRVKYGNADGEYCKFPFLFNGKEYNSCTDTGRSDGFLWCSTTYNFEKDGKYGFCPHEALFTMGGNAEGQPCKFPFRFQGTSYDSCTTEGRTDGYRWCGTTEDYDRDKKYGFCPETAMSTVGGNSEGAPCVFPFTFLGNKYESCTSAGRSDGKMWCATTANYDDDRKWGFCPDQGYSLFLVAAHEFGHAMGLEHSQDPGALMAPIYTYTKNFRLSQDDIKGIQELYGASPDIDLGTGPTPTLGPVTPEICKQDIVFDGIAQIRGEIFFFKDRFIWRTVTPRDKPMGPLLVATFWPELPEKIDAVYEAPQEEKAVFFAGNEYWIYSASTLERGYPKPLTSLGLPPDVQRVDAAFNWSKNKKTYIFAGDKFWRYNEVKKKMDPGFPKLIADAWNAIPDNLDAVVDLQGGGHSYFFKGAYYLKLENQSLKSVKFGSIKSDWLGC
T1 sequence (P39900 whole entry, the tested form may be a part): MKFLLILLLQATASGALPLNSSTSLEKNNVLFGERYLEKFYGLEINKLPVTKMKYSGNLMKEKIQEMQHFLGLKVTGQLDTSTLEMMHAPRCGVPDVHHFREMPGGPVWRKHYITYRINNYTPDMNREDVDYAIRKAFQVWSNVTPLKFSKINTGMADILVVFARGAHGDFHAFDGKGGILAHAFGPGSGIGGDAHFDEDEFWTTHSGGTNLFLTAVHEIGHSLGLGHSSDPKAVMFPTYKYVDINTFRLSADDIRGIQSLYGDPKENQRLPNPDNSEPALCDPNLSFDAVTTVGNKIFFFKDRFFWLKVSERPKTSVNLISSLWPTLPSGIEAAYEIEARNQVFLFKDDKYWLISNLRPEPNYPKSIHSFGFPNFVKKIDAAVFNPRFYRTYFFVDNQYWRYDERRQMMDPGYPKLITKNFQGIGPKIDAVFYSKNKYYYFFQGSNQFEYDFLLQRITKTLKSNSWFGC
Chain of Stromelysin-1 (P08254 whole entry, the tested form may be a part): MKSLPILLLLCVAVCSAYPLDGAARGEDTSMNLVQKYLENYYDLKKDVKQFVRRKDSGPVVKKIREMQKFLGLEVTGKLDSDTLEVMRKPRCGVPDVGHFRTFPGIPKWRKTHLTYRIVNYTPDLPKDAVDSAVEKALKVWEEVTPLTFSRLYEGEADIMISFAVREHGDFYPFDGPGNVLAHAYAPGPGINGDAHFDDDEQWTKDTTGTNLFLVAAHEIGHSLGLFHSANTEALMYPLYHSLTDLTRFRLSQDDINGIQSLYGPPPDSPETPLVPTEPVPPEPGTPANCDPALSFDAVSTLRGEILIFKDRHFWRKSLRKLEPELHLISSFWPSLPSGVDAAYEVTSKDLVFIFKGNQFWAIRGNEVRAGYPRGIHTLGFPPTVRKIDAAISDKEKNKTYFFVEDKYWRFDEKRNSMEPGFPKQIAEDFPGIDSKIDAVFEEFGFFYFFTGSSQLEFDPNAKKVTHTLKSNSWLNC

| SMILES | IC50 [1] | IC50 [2] | IC50 [3] | IC50 [4] | IC50 [5] | IC50 [6] | IC50 [7] | IC50 [8] | IC50 [9] | IC50 [10] | IC50 [11] |
| --- | --- | --- | --- | --- | --- | --- | --- | --- | --- | --- | --- |
| CC(C)ON([C@@H](C(=O)NO)C(C)C)S(=O)(=O)c1ccc(-c2ccccc2)cc1 | 0.2 nM | 0.8 nM | 490 nM | 4.1 nM | 51 nM | – | – | – | – | – | – |
| COc1ccc(S(=O)(=O)c2ccccc2CC(=O)NO)cc1 | 32 nM | 230 nM | 4100 nM | 84 nM | 130 nM | 98 nM | 280 nM | 730 nM | 200 nM | – | – |
| COc1ccc(Oc2ccc(S(=O)(=O)c3ccccc3CC(=O)NO)cc2)cc1 | 0.2 nM | 3.5 nM | 3500 nM | 4.1 nM | 32 nM | 0.8 nM | 5.1 nM | 21 nM | 33 nM | 0.89 nM | 0.85 nM |
| COc1ccc(-c2ccc(S(=O)(=O)c3ccccc3C(=O)NO)cc2)cc1 | 70 nM | 100 nM | 28000 nM | 260 nM | 1200 nM | 930 nM | 87 nM | 4000 nM | 1300 nM | – | – |
| O=C(O)Cc1ccccc1S(=O)(=O)c1ccc(-c2ccccc2)cc1 | 1500 nM | 510 nM | 23000 nM | 260 nM | 4300 nM | 7300 nM | 290 nM | 74000 nM | 5400 nM | – | – |
| COc1ccc(-c2ccc(S(=O)(=O)c3ccccc3CC(=O)O)cc2)cc1 | 140 nM | 47 nM | 4400 nM | 78 nM | 730 nM | 730 nM | 99 nM | 7500 nM | 740 nM | 170 nM | 150 nM |
| O=C(Cc1ccccc1S(=O)(=O)c1ccc(-c2ccccc2)cc1)NO | 6 nM | 38 nM | 29000 nM | 62 nM | 220 nM | 310 nM | 370 nM | 23000 nM | 940 nM | – | – |
| O=C(NO)c1ccccc1S(=O)(=O)c1ccc(-c2ccccc2)cc1 | 590 nM | 1300 nM | 73000 nM | 1400 nM | 5100 nM | 7700 nM | 1000 nM | 45000 nM | 8300 nM | – | – |
| CC(C)ON([C@@H](C(=O)O)C(C)C)S(=O)(=O)c1ccc(-c2ccccc2)cc1 | 410 nM | 1500 nM | > 100000 nM | 7900 nM | 18000 nM | 24000 nM | 2000 nM | 54000 nM | 10000 nM | – | – |
| COc1ccc(S(=O)(=O)c2ccccc2C(=O)NO)cc1 | 14000 nM | 35000 nM | > 100000 nM | 28000 nM | 31000 nM | 24000 nM | 72000 nM | > 50000 nM | 25000 nM | – | – |
| O=C(NO)c1ccccc1S(=O)(=O)c1ccc(Oc2ccccc2)cc1 | 1200 nM | 1200 nM | > 10000 nM | 2700 nM | 1300 nM | 690 nM | 620 nM | 27000 nM | 1300 nM | – | – |
| C[S+]([O-])c1ccc(Oc2ccc(S(=O)(=O)c3ccccc3C(=O)NO)cc2)cc1 (stereo not given) | 5800 nM | 9900 nM | > 200000 nM | 20000 nM | 110000 nM | 51000 nM | 9200 nM | 60000 nM | 120000 nM | – | – |
| COc1ccc(Oc2ccc(S(=O)(=O)c3ccccc3CC(=O)O)cc2)cc1 | 380 nM | 710 nM | > 10000 nM | 940 nM | 6500 nM | 420 nM | 1200 nM | > 10000 nM | 8100 nM | – | – |
| COc1ccc(Oc2ccc(S(=O)(=O)c3ccccc3C(=O)NO)cc2)cc1 | 920 nM | 1300 nM | > 10000 nM | 2700 nM | 6000 nM | 410 nM | 1900 nM | 22000 nM | 4000 nM | – | – |
| COc1ccc(-c2ccc(S(=O)(=O)c3ccccc3CC(=O)NO)cc2)cc1 | 4.8 nM | 9.7 nM | 8300 nM | 25 nM | 130 nM | 94 nM | 120 nM | 1600 nM | 710 nM | – | – |
| COc1ccc(S(=O)(=O)c2ccccc2CC(=O)O)cc1 | 89000 nM | 58000 nM | > 100000 nM | 55000 nM | 93000 nM | > 100000 nM | 74000 nM | > 100000 nM | 77000 nM | – | – |
| COc1ccc(-c2ccc(S(=O)(=O)c3ccccc3C(C)C(=O)NO)cc2)cc1 (racemic) | 2.7 nM | 7 nM | > 10000 nM | 12 nM | 150 nM | 69 nM | 54 nM | 1400 nM | 360 nM | – | – |
| CC(C(=O)NO)c1ccccc1S(=O)(=O)c1ccc(-c2ccccc2)cc1 (racemic) | 6 nM | 73 nM | 12000 nM | 74 nM | 470 nM | 340 nM | 390 nM | 5600 nM | 860 nM | – | – |
| CC(C(=O)O)c1ccccc1S(=O)(=O)c1ccc(-c2ccccc2)cc1 (racemic) | 1900 nM | 2400 nM | 51000 nM | 1800 nM | 6300 nM | 20000 nM | 1900 nM | > 100000 nM | 18000 nM | – | – |
| COc1ccc(-c2ccc(S(=O)(=O)c3ccccc3C(C)C(=O)O)cc2)cc1 (racemic) | 310 nM | 190 nM | > 10000 nM | 190 nM | 1100 nM | 3000 nM | 290 nM | 8000 nM | 2100 nM | – | – |
